Tests used:
[1] = Clinical bioavailability study of Fenbufen suppositories; assay type: in vivo; settings: rectal
Protocol: Rectal administration of non-steroidal anti-inflammatory drugs can be clinically advantageous in some circumstances, in that it can prolong the effect of the drug. For example, when certain non-steroidal drugs are given rectally to a patient immediately prior to retiring for the night, sufficient blood levels of the drug are still available some 6-7 hours later to prevent morning stiffness. However, in the case of Fenbufen, the high level required for the nocturnal dose (450-600 mg) makes it difficult to deliver this drug successfully from the rectum. […] Accordingly, Fenbufen-containing suppository formulations for rectal administration have not been available, which is a disadvantage when Fenbufen would otherwise be the drug of choice for the patient.

[2] = Solubility of BPAA salts in water relative to the free acid; settings: salt versus free acid

bioavailability of the active ingredient from suppositories [1]	increase of the solubility of (1,1′-biphenyl)-4-acetic acid in water [2]	Structure (SMILES)
low bioavailability		O=C(O)CCC(=O)c1ccc(-c2ccccc2)cc1 [Fenbufen, 4-(biphenyl-4-yl)-4-oxo-butyric acid]
	8-9 fold	O=C(O)Cc1ccc(-c2ccccc2)cc1 [sodium]
